How the values were obtained:
Ikbkb = assay: Intrauterine LPS neuroinflammation model, fetal brain qRT-PCR of Ikbkb; format: in vivo, CD1 mice
Method: (§1) Mice were randomly assigned to six groups: Group 1) 4 pups/PBS+normal saline (NS), Group 2) 4 pups/LPS+NS, Group 3) 4 pups/LPS+MgSO4, Group 4) 4 pups/LPS+BMZ, Group 5) 4 pups/LPS+MgSO4 and BMZ, and Group 6) 4 pups/LPS+TMPA. Except for the non-surgical control (Group 1), each group underwent intrauterine injection of either vehicle or LPS. Phosphate buffered saline (PBS) and normal saline (NS) were used for the control groups. […] Mice received 300 μl of normal saline prior to surgery as a precaution against dehydration. All surgical procedures were performed under anesthesia with isoflurane within a sterile environment using PPE and sterile surgical tools to prevent infection. E15.5 pup brains were compared 6 hours post LPS within the six treatment groups as described in Table 1:
(§2) Mice randomized to Groups 3-5 received a single subcutaneous (SQ) injection of 0.1 mg of MgSO4 and/or BMZ 30 minutes after intrauterine injection of LPS, per the Hallak protocol: 270 mg/kg SQ loading dose followed by 27 mg/kg SQ every 20 minutes for a four-hour duration. […]
(§3) A power analysis was conducted to determine the appropriate number of subjects. Using data, it was determined that a minimum number of pups per treatment group of […] was necessary to obtain statistical power at the 0.80 level.

Ccr2 = assay: Intrauterine LPS neuroinflammation model, fetal brain qRT-PCR of Ccr2; format: in vivo, CD1 mice
Method: as §1, §2, §3

Nur77 expression = assay: Intrauterine LPS preterm labor/neuroinflammation model, Nur77 expression in fetal brain (microarray, qRT-PCR); set-up: species or system CD1 mice; settings: mouse, in vivo
Method: as §1
Mice randomized to Groups 3-5 received a single subcutaneous (SQ) injection of 0.1 mg of MgSO4 and/or BMZ 30 minutes after intrauterine injection of LPS, per the Hallak protocol: 270 mg/kg SQ loading dose followed by 27 mg/kg SQ every 20 minutes for a four-hour duration. Mice randomized to Group 6 received a single dose of 50 mg/kg TMPA (approximately 2 mg of TMPA in 80 μl dimethyl sulfoxide (DMSO)) 30 minutes post-operative, as described by Zhan et al..

cerebral palsy = settings: meta-analysis [9]; cited from earlier work
Nos2 = assay: Intrauterine LPS neuroinflammation model, fetal brain qRT-PCR of Nos2; format: in vivo, CD1 mice
Method: as §1, §2, §3

[1] = E15.5, 6 hours post LPS, LPS+treatment vs LPS

**Q.** Which results are given for O=S(=O)([O-])[O-].[Mg+2] [MgSO4, magnesium sulfate]?
**A.** Ikbkb expression in embryonic brain (Ikbkb; mouse, in vivo): significantly lower; Ccr2 expression in embryonic brain (Ccr2; mouse, in vivo): only significantly lower for Ikbkb; Nur77 expression (quantitative reverse-transcriptase PCR validation) (Nur77 expression): reduced; Nur77 expression in fetal brain tissue (microarray) (Nur77 expression): significantly reduced; women in preterm labor treated per single case of cerebral palsy prevented (cerebral palsy): 46; Nos2 expression in embryonic brain (Nos2; mouse, in vivo): only significantly lower for Ikbkb

**Q.** Which results are given for CCCCCCCC(=O)c1cc(OC)c(OC)c(OC)c1CC(=O)OCC [TMPA, ethyl 2-(2,3,4-trimethoxy-6-octanoylphenyl)acetate]?
**A.** Ikbkb expression in embryonic brain (Ikbkb; [1]): significantly lower vs. LPS; Ccr2 expression in embryonic brain (Ccr2; [1]): significantly lower vs. LPS; Nos2 expression in embryonic brain (Nos2; [1]): significantly lower vs. LPS

— patent US10869851B1, “Targeting NUR77 for mitigating perinatal neuroinflammation” (The United States Government as represented by the …, priority 2017, dated 2020)
